In PMC11755407, “Advancements in drug discovery: integrating CADD tools and drug repurposing for PD-1/PD-L1 axis inhibition” (RSC Advances, 2025):

What was measured:
PD-L1 [1] = target: T1, PD-L1 (Homo sapiens, UniProt Q9NZQ7); experiment: competitive ELISA of PD-1Fc binding to immobilized PD-L1
T1 construct: gene CD274; purified recombinant monomeric human PD-L1His (produced in plants); with PD-1 (PD-1Fc chimera)

PD-L1 [2] = target: T1, PD-L1; experiment: competitive ELISA of PD-1Fc binding to immobilized PD-L1; also partial competition with anti-PD-L1 mAb MIH1 on MDA-MB-231 cells (flow cytometry)

T1 sequence (Q9NZQ7 19-238 limits assumed): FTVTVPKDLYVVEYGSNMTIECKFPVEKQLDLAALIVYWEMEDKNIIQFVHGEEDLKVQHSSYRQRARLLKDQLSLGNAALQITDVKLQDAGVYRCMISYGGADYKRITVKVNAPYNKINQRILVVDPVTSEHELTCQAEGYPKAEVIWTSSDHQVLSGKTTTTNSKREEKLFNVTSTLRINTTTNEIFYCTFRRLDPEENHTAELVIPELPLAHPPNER
T1 sequence (Q15116 25-288 partner): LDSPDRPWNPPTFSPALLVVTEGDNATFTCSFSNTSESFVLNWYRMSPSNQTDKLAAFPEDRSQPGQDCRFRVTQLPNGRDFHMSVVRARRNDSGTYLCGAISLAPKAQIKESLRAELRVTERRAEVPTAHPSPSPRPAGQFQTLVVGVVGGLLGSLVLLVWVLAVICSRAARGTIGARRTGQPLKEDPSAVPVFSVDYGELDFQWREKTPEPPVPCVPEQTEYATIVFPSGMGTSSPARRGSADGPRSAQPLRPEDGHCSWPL

IC50 (PD-L1 [1])	IC50 (PD-L1 [2])	Molecule
481 µM		Cc1c(C(=O)Nc2ccc(N3C[C@@H](C)O[C@@H](C)C3)nc2)cccc1-c1ccc(OC(F)(F)F)cc1 [compound 28, sonidegib]
	5.52 µM	PDI-1
